From patent publication US9241991B2, “Agents, compositions, and methods for treating pruritus and related skin conditions” (The Brigham and Women's Hospital, Inc., priority 2010, dated 2016)

Tests used:
DRG neurons = assay: Calcium imaging from cultured DRG neurons; assay type: cell-based; conditions: wild-type mice DRG neurons
Experimental: DRGs from all spinal levels of 4-week old mice were collected in cold DH10 (90% DMEM/F-12, 10% FBS, 100 U/ml penicillin, and 100 μg/ml Streptomycin, Gibco) and treated with enzyme solution (5 mg/ml Dispase, 1 mg/ml Collagenase Type I in HPBS without Ca^++ and Mg^++, Gibco) at 37° C. Following trituration and centrifugation, cells were resuspended in DH10, plated on glass cover slips coated with poly-D-lysine (0.5 mg/ml, Stoughton, Mass.) and laminin (10 μg/ml, Invitrogen), cultured in an incubator ([…] and 5% CO2) at 37° C. and used within 24 hours. Neurons were loaded with Fura 2-acetomethoxy ester (Molecular Probes) for 30 min in the dark at room temperature. After washing, cells were imaged at 340 and 380 nm excitation to detect intracellular free calcium. To compare the response to histamine, chloroquine, and capsaicin between WT and Tlr3-deficient DRG neurons, calcium imaging assays were performed with an experimenter blind to genotype (n=3 per genotype), and the percentages of DRG neurons showing calcium responses were determined as we previously described (23).

TRPV1 [1] = target: T1, TRPV1 (Mus musculus, UniProt Q704Y3); assay: Patch clamp recording of sEPSCs in lamina II neurons of spinal cord slices, capsaicin; assay type: cell-based; parameters: central terminals of TRPV1-expressing nociceptors; from tissue; host or cells: mouse lumbar spinal cord slices (L4-L5); live mice (intrathecal capsaicin, resiniferatoxin pretreatment); conditions: capsaicin 1 μM, WT mice spinal cord slices
T1 sequence (Q704Y3 whole entry): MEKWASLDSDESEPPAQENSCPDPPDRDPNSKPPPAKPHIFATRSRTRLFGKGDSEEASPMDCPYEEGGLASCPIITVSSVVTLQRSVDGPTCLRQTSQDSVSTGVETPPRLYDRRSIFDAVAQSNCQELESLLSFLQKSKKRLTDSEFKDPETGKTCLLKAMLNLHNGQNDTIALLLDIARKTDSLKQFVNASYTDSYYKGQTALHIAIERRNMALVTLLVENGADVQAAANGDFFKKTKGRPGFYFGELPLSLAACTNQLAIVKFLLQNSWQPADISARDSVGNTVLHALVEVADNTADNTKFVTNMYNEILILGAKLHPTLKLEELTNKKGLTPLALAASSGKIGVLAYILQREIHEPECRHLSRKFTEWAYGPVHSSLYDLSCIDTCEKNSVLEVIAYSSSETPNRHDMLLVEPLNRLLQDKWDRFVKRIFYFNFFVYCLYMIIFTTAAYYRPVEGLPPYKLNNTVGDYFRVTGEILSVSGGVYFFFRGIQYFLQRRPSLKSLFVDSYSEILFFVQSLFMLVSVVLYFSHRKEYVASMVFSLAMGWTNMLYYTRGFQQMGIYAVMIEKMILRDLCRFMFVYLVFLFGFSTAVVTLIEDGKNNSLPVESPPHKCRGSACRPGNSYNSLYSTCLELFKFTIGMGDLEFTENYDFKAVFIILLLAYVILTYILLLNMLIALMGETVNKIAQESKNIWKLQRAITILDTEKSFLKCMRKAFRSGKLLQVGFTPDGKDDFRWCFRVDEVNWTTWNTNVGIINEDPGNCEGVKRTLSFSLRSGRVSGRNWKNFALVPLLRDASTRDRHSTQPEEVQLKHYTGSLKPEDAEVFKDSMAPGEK

TRPV1 [2] = target: T1, TRPV1; assay: Behavior after intrathecal injection of capsaicin; assay type: in vivo; conditions: WT mice
TLR3 [3] = assay: TLR3 protein and mRNA levels in DRGs after intrathecal TLR3 antisense ODNs (Western blotting, quantitative PCR); assay type: in vivo; conditions: intrathecal AS-ODNs 10 μg daily for 5 days, adult WT mice; P<0.05
Experimental: (§1) We injected pruritic agents intradermally in the nape of the neck (50 μl) or cheek (10 μl), respectively. We purchased histamine, compound 48/80, trypsin, chloroquine, serotonin, TLR3 agonist polyribo-inosinic/cytidylic acid (PIC), and complete Freund's adjuvant (CFA) from Sigma-Aldrich, histamine H1 receptor agonist histamine-trifluoromethyl-toluidine (HTMT), capsaicin, and the H4R-selective agonist 4-methylhistamine (4-MeHA) from Tocris, and endothelin-1 (ET-1) from ALEXIS Biochemicals. […] Antisense oligodeoxynucleotides (AS-ODN; 5′-[…]-3′; SEQ ID NO:1) targeting TLR3 and mismatch ODN (MM-ODN; 5′-[…]-3′; SEQ ID NO:2) were synthesized by Invitrogen according to the published sequences (2). AS-ODN (10 μg) or MM-ODN were intrathecally injected once a day for 5 days. To target DRG and spinal cord cells, TRIF inhibitor (10 μl) were delivered intrathecally into cerebral spinal fluid via a lumbar puncture. […]
Mice were terminally anesthetized with isoflurane and transcardially perfused with PBS, and the DRGs were rapidly removed and homogenized in a lysis buffer containing a cocktail of protease inhibitors and phosphatase inhibitors. The protein concentrations were determined by BCA Protein Assay (Pierce), and 30 μg of proteins were loaded for each lane and separated on SDS-PAGE gel (4-15%, Bio-Rad). […]

TLR3 [4] = assay: Compound 48/80- and chloroquine-induced scratching after intrathecal TLR3 AS-ODNs; assay type: in vivo; conditions: intrathecal AS-ODNs 10 μg daily for 5 days, adult mice; P<0.05
Experimental: as §1
Mice were habituated to the testing environment daily for at least two days before analysis. <ice were shaved at the back of the neck the day before injection. […] We injected 50 μl of pruritic agent intradermally in the nape of the neck and counted the number of scratches every 5 min for 30 min after the injection. A scratch was counted when a mouse lifted its hindpaw to scratch the shaved region and returned the paw to the floor or to the mouth for licking. […]

TLR4 = TLR4 expression in the DRG after intrathecal AS-ODNs (specificity); assay type: in vivo, mice
Experimental: We injected pruritic agents intradermally in the nape of the neck (50 μl) or cheek (10 μl), respectively. We purchased histamine, compound 48/80, trypsin, chloroquine, serotonin, TLR3 agonist polyribo-inosinic/cytidylic acid (PIC), and complete Freund's adjuvant (CFA) from Sigma-Aldrich, histamine H1 receptor agonist histamine-trifluoromethyl-toluidine (HTMT), capsaicin, and the H4R-selective agonist 4-methylhistamine (4-MeHA) from Tocris, and endothelin-1 (ET-1) from ALEXIS Biochemicals. […] Antisense oligodeoxynucleotides (AS-ODN; 5′-[…]-3′; SEQ ID NO:1) targeting TLR3 and mismatch ODN (MM-ODN; 5′-[…]-3′; SEQ ID NO:2) were synthesized by Invitrogen according to the published sequences (2). AS-ODN (10 μg) or MM-ODN were intrathecally injected once a day for 5 days. To target DRG and spinal cord cells, TRIF inhibitor (10 μl) were delivered intrathecally into cerebral spinal fluid via a lumbar puncture. A successful spinal puncture was evidenced by a brisk tail-flick after the needle entry into subarachnoid space (3). Most reagents were dissolved in sterile saline. Capsaicin was dissolved in 10% DMSO.
We collected back hairy skin and cervical DRGs from 4 pairs of WT and Tlr3^−/− mice and isolated total RNAs using RNeasy Plus Mini kit (Qiagen, Valencia, Calif.). […]

TLR3 [5] = target: T2, TLR3 (Mus musculus, UniProt Q99MB1); assay: Scratching after intradermal PIC in naive mice and after AEW dry skin treatment; assay type: in vivo; parameters: from tissue; host or cells: mouse DRG (dissociated small neurons), lumbar spinal cord slices, neck skin of live mice
T2 sequence (Q99MB1 26-905): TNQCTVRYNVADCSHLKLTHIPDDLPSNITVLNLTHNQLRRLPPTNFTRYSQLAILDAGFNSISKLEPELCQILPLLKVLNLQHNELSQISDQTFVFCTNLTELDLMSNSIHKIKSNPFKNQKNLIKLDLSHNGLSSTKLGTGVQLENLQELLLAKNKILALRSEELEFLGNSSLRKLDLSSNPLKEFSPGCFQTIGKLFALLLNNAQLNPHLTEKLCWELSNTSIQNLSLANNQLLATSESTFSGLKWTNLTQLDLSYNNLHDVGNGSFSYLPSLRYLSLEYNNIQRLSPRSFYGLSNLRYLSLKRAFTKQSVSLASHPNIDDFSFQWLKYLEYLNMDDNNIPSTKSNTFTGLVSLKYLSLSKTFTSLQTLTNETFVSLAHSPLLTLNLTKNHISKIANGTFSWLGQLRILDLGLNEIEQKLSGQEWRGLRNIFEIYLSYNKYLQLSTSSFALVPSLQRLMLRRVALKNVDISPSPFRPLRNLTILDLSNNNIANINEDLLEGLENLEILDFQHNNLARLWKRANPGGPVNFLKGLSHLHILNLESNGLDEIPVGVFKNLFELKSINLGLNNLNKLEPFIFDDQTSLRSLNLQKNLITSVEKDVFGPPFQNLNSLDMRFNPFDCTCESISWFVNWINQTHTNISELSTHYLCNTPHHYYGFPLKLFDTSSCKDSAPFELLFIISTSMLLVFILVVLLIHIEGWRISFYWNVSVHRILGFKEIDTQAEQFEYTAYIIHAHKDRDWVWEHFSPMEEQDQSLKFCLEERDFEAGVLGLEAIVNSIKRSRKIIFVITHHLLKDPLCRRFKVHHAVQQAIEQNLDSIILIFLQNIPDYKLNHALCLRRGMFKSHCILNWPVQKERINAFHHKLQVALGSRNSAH
Experimental: Mice were habituated to the testing environment daily for at least two days before analysis. <ice were shaved at the back of the neck the day before injection. We put mice in small plastic chambers (14×18×12 cm) on an elevated metal mesh floor and allowed 30 min for habituation before examination. We injected 50 μl of pruritic agent intradermally in the nape of the neck and counted the number of scratches every 5 min for 30 min after the injection. A scratch was counted when a mouse lifted its hindpaw to scratch the shaved region and returned the paw to the floor or to the mouth for licking. On the basis of previous reports (4; 5) and our preliminary studies (6), we chose the following doses for pruritic agents: 25 ng for ET-1, 20 μg for 5-HT, 100 μg for HTMT, compound 48/80, and SLIGRL-NH2, 200 μg for chloroquine, 300 μg for trypsin, and 500 μg for histamine and 4-MeHA. We also injected diluted formalin (0.6%, 50 μl) in the nape to induce scratching behaviors. The experimenters were blinded to the genotypes of the animals. We also produced a dry skin model for chronic itch as described in detail previously (7), by painting neck skin with acetone and diethyether (1:1) following by water (AEW) twice a day for 7 days, and examined spontaneous itch by counting the number of scratches for 60 minutes on day 8 and 9.

TLR3 [6] = target: T2, TLR3; assay: Patch-clamp recording of PIC-induced inward currents in dissociated DRG neurons; assay type: cell-based, mice; parameters: from tissue; host or cells: mouse DRG (dissociated small neurons), lumbar spinal cord slices, neck skin of live mice
Experimental: DRGs were removed aseptically from 4-week old mice and first incubated with collagenase (1.25 mg/ml, Roche)/dispase-II (2.4 units/ml, Roche) at 37° C. for 90 min, then digested with 0.25% trypsin (Cellgro) for 8 min at 37° C., followed by 0.25% trypsin inhibitor (Sigma). Cells were then mechanically dissociated with a flame polished Pasteur pipette in the presence of 0.05% DNAse I (Sigma). DRG cells were plated onto poly-D-lysine and laminin-coated slide chambers (for immunocytochemistry) or glass cover slips (for electrophysiology) and grown in a neurobasal defined medium (with 2% B27 supplement, Invitrogen) in the presence of 5 μM AraC, at 36.5° C., with 5% carbon dioxide.
Single-cell RT-PCR was performed as previously described (6). DRG cultures were prepared as above described and grown on glass cover slips coated with poly-D-lysine and laminin. Whole-cell patch clamp recordings were performed at room temperature to measure currents in dissociated DRG neurons with small-sizes using Axopatch-200B amplifier (Axon Instruments, Union City, USA). The patch pipettes were pulled from borosilicate capillaries (Chase Scientific Glass Inc., Rockwood, Calif., USA). When filled with the pipette solution, the resistance of the pipettes was 4˜5 MΩ. The recording chamber (volume 300 μl) was continuously superfused (3-4 ml/min). Series resistance was compensated for (>80%), and leak subtraction was performed. Data were low-pass-filtered at 2 KHz, sampled at 10 KHz. The pClamp8 (Axon Instruments) software was used during experiments and analysis. The pipette solution was composed of (in mM): 126 K-gluconate, 10 NaCl, 1 MgCl2, 10 EGTA, 2 NaATP, 0.1 MgGTP, pH 7.3 with KOH, 295-300 mOsm. Extracellular solution contained (in mM): 140 NaCl, 5 KCl, 2 CaCl2, 1 MgCl2, 10 HEPES, 10 glucose adjusted to pH 7.4 with NaOH, osmolarity 310 mOsm. Inward currents were recorded at a holding potential of −60 mV. In some experiments, following parch-clamp recording, the recorded DRG neurons were collected for single-cell RT-PCR analysis.

TLR3 [7] = target: T2, TLR3; assay: Patch clamp recording of sEPSCs in lamina II neurons of spinal cord slices, PIC; assay type: cell-based; parameters: from tissue; host or cells: mouse DRG (dissociated small neurons), lumbar spinal cord slices, neck skin of live mice; conditions: PIC 100 ng/ml, slices of WT but not Tlr3-/- mice; P<0.05
Experimental: As we previously reported (18), a portion of the lumbar spinal cord (L4-L5) was removed from mice (4-6 week old) under urethane anesthesia (1.5-2.0 g/kg, i.p.) and kept in pre-oxygenated ice-cold Krebs solution. Transverse slices (600 μm) were cut on a vibrating microslicer. The slices were perfused with Kreb's solution (8-10 ml/min) that was saturated with 95% O2 and 5% CO2 at 36±1° C. for at least 1-3 hours prior to experiment. The Kreb's solution contains (in mM): NaCl 117, KCl 3.6, CaCl2 2.5, MgCl2 1.2, NaH2PO4 1.2, NaHCO3 25, and glucose 11.
The whole cell patch-clamp recordings were made from lamina IIo neurons in voltage clamp mode. Patch pipettes were fabricated from thin-walled, borosilicate, glass-capillary tubing (1.5 mm o.d., World Precision Instruments). After establishing the whole-cell configuration, neurons were held at the potential of −70 mV to record sEPSCs. The resistance of a typical patch pipette is 5-10 M. The internal solution contains (in mM): potassium gluconate 135, KCl 5, CaCl2 0.5, MgCl2 2, EGTA 5, HEPES 5, ATP-Mg 5. Membrane currents were amplified with an Axopatch 200B amplifier (Axon Instruments) in voltage-clamp mode. Signals were filtered at 2 kHz and digitized at 5 kHz. Data were stored with a personal computer using pCLAMP 10 software and analyzed with Mini Analysis (Synaptosoft Inc.).

For `COc1cc(CNC(=O)CCCC/C=C/C(C)C)ccc1O` [capsaicin], the “neurons with intracellular Ca2+ increases” value (DRG neurons) was 39%, the “sEPSC frequency in lamina II neurons” value (TRPV1 [1]) was “dramatic increase” and the “behavior after intrathecal injection” value (TRPV1 [2]) was “induced biting, licking and scratching behavior”.

For “AS-ODNs: Antisense oligodeoxynucleotides 5′-AACAATTGCTTCAAGTCC-3′ (SEQ ID NO:1) targeting TLR3, synthesized by Invitrogen (DNA, backbone not given here)”, the “TLR3 protein and mRNA levels in DRGs” value (TLR3 [3]) was “partial knockdown”, the chloroquine-induced scratching (TLR3 [4]) was “significantly inhibited” and the “compound 48/80-induced scratching” value (TLR3 [4]) was “significantly inhibited”. For the same molecule, the “TLR4 expression in the DRG” value (TLR4) was “did not affect”.

polyribo-inosinic/cytidylic acid [PIC] was tested, and the “scratching responses in naive mice” value (TLR3 [5]; intradermal PIC 0.1-100 μg) was “failed to induce obvious scratching responses”, the “spontaneous scratching after AEW treatment” value (TLR3 [5]; intradermal PIC, TLR3-dependent, P<0.05) was “able to potentiate” and the “neurons that respond to PIC” value (TLR3 [6]; PIC 200 ng/ml, small DRG neurons, all also express TLR3 mRNA) was “four neurons (out of ten)”. For the same molecule, the “inward currents in DRG neurons from Tlr3-/- mice” value (TLR3 [6]; Tlr3-/- mice) was “failed to induce inward currents”, the “neurons in which an inward current was elicited” value (TLR3 [6]; dissociated DRG neurons, WT, PIC 100-1000 ng/ml, 5 out of 8) was 60% and the sEPSC frequency (TLR3 [7]) was “increased”.
